Assay results taken from patent US20210361750A1, “Anti-Viral Lactoferrin Facemask” (priority 2020, published 2021).

Tests used:
Vero E6 cells = settings: control without virus, 10 mg/mL
SARS-CoV-2 = experiment: Cyclodextrin testing: antiviral activity against SARS-CoV-2 in Vero E6 cells (CPE); type: cell-based; settings: pH 7; lactoferrin alone 10 mg/mL, cyclodextrin alone 10 mg/mL, or lactoferrin 5 mg/mL + cyclodextrin 10 mg/mL

Substance: cyclodextrin [cyclodextrin alone, reference compound]
- cytopathic effect on the cells (Vero E6 cells): neither the lactoferrin alone (10 mg/mL) or the cyclodextrin alone (10 mg/mL) had a cytopathic effect
- antiviral activity (cytopathic effect) (SARS-CoV-2): none of the experiments showed antiviral activity
